For experiment [1], the target named is T1, Beta-2 adrenergic receptor (Homo sapiens, UniProt P07550). In words: Displacement of [3H]-DHA from recombinant human beta2 adrenoceptor expressed in HEK293T cells. It is filed as cell-based, HEK-293T. (In general: Displacement assays read how much labelled ligand stays bound in the presence of the test substance.)
Experiment [2] concerns the target T1, Beta-2 adrenergic receptor. Nature of the experiment: Agonist activity at recombinant human beta2 adrenoceptor expressed in HEK293T cells assessed as increase in IBMX-induced cAMP accumulation using [3H]-cAMP after 30 mins by liquid scintillation counting. The experiment is classed as functional, cell-based, HEK-293T. In general terms: cAMP levels reflect the balance of adenylyl cyclase and phosphodiesterase activity.

Structures are written as SMILES.

Ki and EC50 data for two compounds are collected here from ChEMBL document CHEMBL1933019, “Cell-based and in-silico studies on the high intrinsic activity of two boron-containing salbutamol derivatives at the human β₂-adrenoceptor” (Bioorg Med Chem, 2012).

One may read the Ki as the dissociation constant of the complex between target and ligand, obtained from inhibition or displacement. One may read the EC50 as the concentration needed to bring the measured effect to its halfway point.

T1 sequence (P07550 whole entry): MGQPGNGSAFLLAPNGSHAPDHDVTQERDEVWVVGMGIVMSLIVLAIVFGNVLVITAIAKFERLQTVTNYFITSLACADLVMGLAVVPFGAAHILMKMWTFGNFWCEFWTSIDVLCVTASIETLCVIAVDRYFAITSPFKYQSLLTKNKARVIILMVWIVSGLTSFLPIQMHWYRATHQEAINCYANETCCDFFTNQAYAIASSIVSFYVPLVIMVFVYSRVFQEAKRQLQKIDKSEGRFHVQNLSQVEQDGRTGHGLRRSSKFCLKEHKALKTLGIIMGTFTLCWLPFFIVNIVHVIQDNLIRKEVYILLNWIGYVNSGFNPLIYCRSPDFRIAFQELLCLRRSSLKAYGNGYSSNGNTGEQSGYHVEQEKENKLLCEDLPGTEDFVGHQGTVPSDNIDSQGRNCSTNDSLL

With `CC(C)(C)NC[C@H](O)c1ccc2c(c1)C[OH+][B-](O)(c1ccccc1)O2` (some centres undefined), the Ki in experiment [1] stood at 6610 nM. Moreover, the EC50 in experiment [2] turned out to be 138 nM.

Take `CC(C)(C)NC[C@H](O)c1ccc2c(c1)C[OH+][B-](O)(O)O2`: in experiment [1], the Ki is 3890 nM. Moreover, the EC50 in experiment [2] is 166 nM.
